Data: a melting point compilation (Tetko et al.)

Compared with `CNc1ccccc1C(=O)NCCc1ccc(OC)cc1`, `O=C(NCCc1ccc(F)cc1)C1Cc2ccccc2CN1` (configuration not stated) is higher in melting point: 96 to 98 °C for the first, 102 to 104 °C for the second.

First: Nc1c(F)cccc1S(N)(=O)=O
Second: NS(=O)(=O)c1ccc(Cl)cn1
The melting point of the first is higher: 136 to 138 °C for the first, 125 to 127 °C for the second.

First: CC1=CC=CC(=C2Nc3ccc(F)cc3N2C(C)C)C1=N
Second: O=C1CC(C(=O)O)c2ccc(F)cc2N1 (configuration not stated)
The melting point of the first is lower: 160 to 162 °C for the first, 214 to 216 °C for the second.

First: Cc1ccc(-c2cncc(C(=O)O)c2)cc1
Second: Cc1ccc(N2N=C(C(=O)O)NCC2=O)cc1
The melting point of the first is higher: 266 to 268 °C for the first, 98 to 100 °C for the second.

First: c1ccc(CN2CCN(c3ccccc3)CC2)cc1
Second: O=C(O)c1ccc(F)c(COCc2ccccc2)c1
The melting point of the first is lower: 51 to 53 °C for the first, 95 to 97 °C for the second.

Compared with `Cc1nc(/C=C/C(=O)O)cs1`, `Cc1cc(C)c(C(=O)O)[nH]1` is lower in melting point: 177 to 179 °C for the first, 109 to 111 °C for the second.

First: CC(C)Oc1cccc(CNC(=O)CCl)c1
Second: CCOc1cccc(CNC(=O)CCl)c1
The melting point of the first is lower: 69 to 71 °C for the first, 97 to 99 °C for the second.

Compared with `NC(=O)c1cnc(Cl)cn1`, `Nc1c(Cl)ncnc1N1CCCC1` is lower in melting point: 166 to 168 °C for the first, 103 to 105 °C for the second.

First: O=C1CCCN1c1cccc(Br)c1
Second: CC1CCCCN1S(=O)(=O)c1cccc(C(=O)O)c1 (configuration not stated)
The melting point of the first is lower: 69 to 71 °C for the first, 149 to 151 °C for the second.

Compared with `Cn1nc(Br)c2c(N)ncnc21`, `CNC(C)c1ccc(-n2cncn2)cc1` (configuration not stated) is lower in melting point: 228 to 230 °C for the first, 44 to 48 °C for the second.

First: CCOC(=O)C1SC(=N)NC1=O (configuration not stated)
Second: CCOC(=O)Nc1ccc(N)cc1C#N
The melting point of the first is higher: 175 to 177 °C for the first, 166 to 168 °C for the second.

First: O=S(=O)(F)c1ccc2cn[nH]c2c1
Second: NS(=O)(=O)c1cccnc1
The melting point of the first is higher: 219 to 221 °C for the first, 109 to 111 °C for the second.

First: COc1ccc(N)cc1S(=O)(=O)NC1CC1
Second: COC(=O)c1ccc(S(=O)(=O)Cl)c(Br)c1
The melting point of the first is higher: 163 to 165 °C for the first, 82 to 84 °C for the second.

First: CC(=O)NCCC(N)=S
Second: CC(C)CCNC(=O)NC(=O)CCl
The melting point of the first is higher: 99 to 101 °C for the first, 93 to 95 °C for the second.

First: CC(O)Cc1nc2ccccc2s1 (configuration not stated)
Second: NC(Cc1nc2ccccc2s1)=NO
The melting point of the first is lower: 84 to 86 °C for the first, 159 to 161 °C for the second.

First: O=C(O)c1ccn(-c2cccc(C(F)(F)F)c2)n1
Second: Cc1noc(C(F)(F)F)c1C(=O)O
The melting point of the first is higher: 155 to 157 °C for the first, 140 to 142 °C for the second.

`O=C(O)C1CCN(C(=O)c2ccccc2)CC1` and `O=C(CCc1ccccc1)NC1CCN(C(=O)CCl)CC1` fall in the same range of melting point: 144 to 146 °C for the first, 144 to 146 °C for the second.

Compared with `CC(C(=O)O)S(=O)(=O)Cc1ccc(Br)cc1` (configuration not stated), `O=C(O)C1(S(=O)(=O)c2ccc(Br)cc2)CCCC1` is higher in melting point: 135 to 137 °C for the first, 138 to 140 °C for the second.

First: CN[C@@H]1CN(C(=O)OC(C)(C)C)C[C@H]1O
Second: Cn1cc(CC(=O)O)cn1
The melting point of the first is lower: 89 to 91 °C for the first, 121 to 123 °C for the second.

`Nc1cc2c(cc1C(=O)O)OCCO2` and `COc1cc(OC)c(N)c(C(=O)O)c1` fall in the same range of melting point: 189 to 191 °C for the first, 189 to 191 °C for the second.

First: O=c1[nH]cc(N2CCOCC2)c(=O)[nH]1
Second: C1Cc2nn[nH]c2CN1
The melting point of the first is higher: 304 to 306 °C for the first, 154 to 156 °C for the second.

First: COc1ccccc1-c1nnc(N)o1
Second: CC(Cl)c1nnc(-c2ccc(F)cc2)o1 (configuration not stated)
The melting point of the first is higher: 175 to 177 °C for the first, 67 to 69 °C for the second.

First: CC(=O)c1ccc(-c2ccc(Br)s2)cc1
Second: O=C(/C=C/c1ccccc1)c1ccc(Br)cc1
The melting point of the first is higher: 148 to 150 °C for the first, 104 to 106 °C for the second.

Compared with `COc1cc(C2(C(=O)O)CCCC2)ccc1C`, `O=C(O)C1(O)CCCC1` is lower in melting point: 163 to 165 °C for the first, 84 to 86 °C for the second.

First: O=C(Nc1ccc(O)cc1)c1cccc([N+](=O)[O-])c1
Second: O=C(Nc1ccccc1)c1ccc(CBr)cc1
The melting point of the first is higher: 222 to 224 °C for the first, 179 to 181 °C for the second.

Compared with `CSc1ncc[nH]1`, `O=c1[nH]cnc2c1cnn2-c1ccc(F)cc1` is higher in melting point: 129 to 131 °C for the first, 243 to 246 °C for the second.

First: O=c1[nH]c2ccccc2cc1CO
Second: O=c1[nH]cnc2cc3ccccc3cc12
The melting point of the first is lower: 239 to 241 °C for the first, 282 to 284 °C for the second.

First: Cc1cc(C)c(CCNC(=O)CCl)c(C)c1
Second: CCCC(=O)Nc1c(Cl)cc(Cl)cc1C(=O)O
The melting point of the first is lower: 143 to 145 °C for the first, 180 to 182 °C for the second.

`Nc1ccccc1-c1ccncc1` and `Cc1ccc(-n2cccc2)cc1` cannot be ordered by melting point: 83 to 85 °C for the first, 82 to 84 °C for the second.

First: Cc1nn(-c2ccccc2Cl)c2sc(C(=O)O)cc12
Second: COc1ccc2cc(-c3nn(-c4ccccc4)cc3C=O)ccc2c1
The melting point of the first is lower: 56 to 58 °C for the first, 164 to 166 °C for the second.

First: ClCc1nc(-c2ccsc2)no1
Second: O=C1Nc2cccc(Br)c2C1=O
The melting point of the first is lower: 52 to 56 °C for the first, 229 to 231 °C for the second.

First: O=C(CCl)NC1C2CC3CC(C2)CC1C3 (configuration not stated)
Second: O=C(O)c1ncoc1C1CCCO1 (configuration not stated)
The melting point of the first is lower: 118 to 122 °C for the first, 125 to 127 °C for the second.

First: Cc1cc(C)cc(OCC(=O)N2Cc3ccccc3CC2C(=O)O)c1 (configuration not stated)
Second: Cc1ccc(S(=O)(=O)N(O)c2ccccc2)cc1
The melting point of the first is higher: 161 to 165 °C for the first, 36 to 40 °C for the second.

First: NS(=O)(=O)c1cccc(C(=O)O)c1
Second: Cn1c(=O)c2cc(S(=O)(=O)Cl)cnc2n(C)c1=O
The melting point of the first is higher: 238 to 240 °C for the first, 171 to 173 °C for the second.

Compared with `Cc1cc(C)c2c(N)c(C(=O)NN)sc2n1`, `CCC(CC)NC(=O)C(=O)NN` is lower in melting point: 245 to 247 °C for the first, 177 to 179 °C for the second.

Compared with `NC(=S)NN=Cc1cccs1`, `O[C@@H]1CCCOc2ccccc21` is lower in melting point: 161 to 163 °C for the first, 89 to 91 °C for the second.
